Like-named read-outs stand apart in the source and are kept apart here.
Tests used:
[1] = tested on: Trypanosoma brucei Lister 427 strain bloodstream form; test: Assay for proliferation of kinetoplastid parasite Trypanosoma brucei; format: cell-based
Procedure, shortened: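 Bloodstream-form T. brucei Lister 427 in HMI-9 medium was exposed to compound (DMSO vehicle) for 48 hours at 37° C, 5% CO2. Parasite growth was read as ATP by CellTiter-Glo luminescence, with EC50 calculated from percent inhibition.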

[2] = tested on: Trypanosoma cruzi amastigotes (Tulahuen strain) cultured in 3T3 fibroblast cells; test: Assay for proliferation of kinetoplastid parasite Trypanosoma cruzi; format: cell-based; conditions: 144 h, 6 day incubation
Text: Assay for Proliferation of Kinetoplastid Parasite Trypanosoma cruzi.
Compounds of the invention can be assayed to measure their capacity to inhibit proliferation of kinetoplastid parasite Trypanosoma cruzi. The screening procedure is for identifying compounds with inhibitor activity against Trypanosoma cruzi amastigotes cultured in 3T3 fibroblast cells. The assay is done using the mammalian stage (amastigotes) of T. cruzi that replicates in the intracellular space of host cells. The host cells are initially infected with the culture-derived trypomastigotes that rapidly invade and then divide as amastigotes. The protocol uses the Tulahuen strain of T. cruzi that has been engineered to express the E. coli beta-galactosidase gene (Lac-Z) (Antimicr. Agents Chemoth. 40:2592, 1996). This allows for a colorimetric readout by using the substrate CPRG and an absorbance plate reader.
3T3 fibroblast cells are re-suspended in RPMI-1640 medium without phenol red medium supplemented with 10% FBS (heat inactivated), 100 μg/ml penicillin, and 100 μg/ml streptomycin. Forty μL of suspension (1,000 cells) is dispensed into 384-well plates and incubated overnight at 37° C. temperature and in atmosphere containing 5% CO2. The following day, 100 nL of compounds of the invention in DMSO are added to plate wells containing 3T3 cells. At the same time control compounds (benznidazole and nifurtimox) and DMSO are added to plates to serve as the positive and negative controls, respectively. After that, 10 μL of media containing 10,000 T. cruzi trypomastigotes are added to each plate well and plates are placed back into incubators. After 6 day incubation, 10 μL of reagent solution (0.6 mM CPRG, 0.6% NP-40 in PBS) is added to plates and incubated at room temperature for 2 hours. Absorbance is then measured on SpectraMax Gemini […] to determine relative number of T. cruzi cells present in each plate well. The percentage inhibition of 50%, EC50, is calculated for each compound. […] Typically, the EC50 is 10 μM or less.

[3] = tested on: L. donovani HU3 strain in mouse peritoneal macrophages; test: Assay for proliferation of Leishmania parasites in mouse peritoneal macrophages; format: cell-based, Leishmania donovani; conditions: Leishmania donovani, Peritoneal macrophage, read-out: L. donavani Macrophage EC50
Procedure, shortened: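 EC50 derives from counting SYBR Green-stained parasite nuclei by high-content imaging after 5 days' compound exposure. Host cells were uninfected BALB/c peritoneal macrophages, infected for 24 h before dosing with spleen-derived L. donovani HU3 parasites from mice infected 9–11 weeks.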

[4] = tested on: Leishmania donovani axenic amastigote parasites; test: Leishmania donovani axenic amastigote proliferation assay; format: cell-based; conditions: axenic amastigotes in vitro, read-out: L. donovani amastigotes EC50
Procedure, shortened: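 EC50 values come from CellTiter-Glo luminescence after 2-day compound exposure of axenic amastigotes (9600 per well) at 37 °C, 5% CO2. Medium: RPMI 1640, 20% heat-inactivated FBS, folic acid, adenosine, D-glucose, 25 mM MES, adjusted to pH 5.5.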

[5] = Lister 427 bloodstream form, 48 hours, read-out: T. brucei EC50
[6] = Tulahuen amastigotes in 3T3 fibroblast cells, read-out: T cruzi EC50

CON(C)C(=O)Nc1ccc(Cl)c(-c2nc3ncc(C)cc3[nH]2)c1 [Compound 240]
EC50 [1, 5]: 0.45 µM
EC50 [2, 6]: 0.7 µM
EC50 [3]: 6.1 µM
EC50 [4]: 2.06 µM

Cc1cnc2nc(-c3cc(NC(=O)c4ccc(F)s4)ccc3Cl)[nH]c2c1 [Compound 185]
EC50 [1, 5]: 1.77 µM
EC50 [2, 6]: 0.96 µM
EC50 [3]: > 30.7 µM
EC50 [4]: 11.2 µM

Cc1cnc2nc(-c3cc(NC(=O)N4CC(F)(F)C[C@@H]4c4cccc(F)c4)ccc3Cl)[nH]c2c1 [Compound 229]
EC50 [1, 5]: > 23.3 µM
EC50 [2, 6]: > 20 µM
EC50 [3]: > 50 µM
EC50 [4]: > 25 µM

CS(=O)(=O)c1ccc(-c2cnc3nc(-c4cc(NC(=O)N5CCCC5)ccc4Cl)[nH]c3c2)cc1 [Compound 297]
EC50 [1, 5]: 0.187 µM
EC50 [2, 6]: 5.3 µM
EC50 [3]: 5.5 µM
EC50 [4]: 1.59 µM

Cc1cnc2nc(-c3cc(NC(=O)c4ccc(Cl)o4)ccc3Cl)[nH]c2c1 [Compound 86]
EC50 [1, 5]: 0.183 µM
EC50 [2, 6]: 0.069 µM
EC50 [3]: 3.09 µM
EC50 [4]: 0.84 µM

O=C(Nc1ccc(Cl)c(-c2nc3ncc(Br)cc3[nH]2)c1)c1cnccn1 [Compound 375]
EC50 [1, 5]: 2.35 µM
EC50 [2, 6]: 3.9 µM
EC50 [3]: > 42.7 µM
EC50 [4]: 7.5 µM

Cc1cnc2nc(-c3cc(NC(=O)C4CCCCO4)ccc3Cl)[nH]c2c1 (stereo not drawn) [Compound 131]
EC50 [1, 5]: 5.1 µM
EC50 [2, 6]: 6.8 µM
EC50 [3]: > 50 µM
EC50 [4]: 22.1 µM

Cc1ccc(C(=O)Nc2ccc(Cl)c(-c3nc4ncc(C(F)(F)F)cc4[nH]3)c2)o1 [Compound 279]
EC50 [1, 5]: 0.311 µM
EC50 [2, 6]: 0.141 µM
EC50 [3]: 2.25 µM
EC50 [4]: 0.57 µM

CN(C(=O)OC(C)(C)C)c1ccc(-c2cnc3nc(-c4cc(NC(=O)N5CCCC5)ccc4Cl)[nH]c3c2)cc1 [Compound 332, tert-butyl N-[4-(2-{2-chloro-5-[(pyrrolidin-1-yl)carbonylamino]phenyl}-1H-imidazo[4,5-b]pyridin-6-yl)phenyl]-N-methylcarbamate]
EC50 ([2]; TULAHUEN, T. cruzi in 3T3 fibroblast cells, CPRG absorbance, read-out: EC50): 0.006 µM

Cc1cnc2nc(-c3cc(NC(=O)c4cccnn4)ccc3Cl)[nH]c2c1 [Compound 186]
EC50 [1, 5]: 4.5 µM
EC50 [2, 6]: > 11.5 µM
EC50 [3]: > 34.7 µM
EC50 [4]: > 25 µM

Cc1cnc2nc(-c3cc(NC(=O)CCC(=O)O)ccc3Cl)[nH]c2c1 [Compound 201]
EC50 [1, 5]: > 10.8 µM
EC50 [2, 6]: > 20 µM
EC50 [3]: > 50 µM
EC50 [4]: > 25 µM

Cc1cnc2nc(-c3cc(NC(=O)N4CC5CC5C4)ccc3Cl)[nH]c2c1 (stereo not drawn) [Compound 230]
EC50 [1, 5]: 1.48 µM
EC50 [2, 6]: 3.6 µM
EC50 [3]: 13.3 µM
EC50 [4]: 5.4 µM

Cc1cnc2nc(-c3cc(NC(=O)c4ccc(Cl)s4)ccc3Cl)[nH]c2c1 [Compound 152]
EC50 [1, 5]: 5.6 µM
EC50 [2, 6]: > 11.5 µM
EC50 [3]: 4.5 µM
EC50 [4]: > 25 µM

Cc1cnc2nc(-c3cc(NC(=O)C4CCCCN4)ccc3Cl)[nH]c2c1 (stereo not drawn) [Compound 171]
EC50 [1, 5]: > 7.5 µM
EC50 [2, 6]: 7.5 µM
EC50 [3]: > 50 µM
EC50 [4]: > 25 µM

NC(=O)c1ccc(-c2cnc3nc(-c4cc(NC(=O)c5ccco5)ccc4Cl)[nH]c3c2)cc1 [Compound 19, N-{3-[6-(4-carbamoylphenyl)-1H-imidazo[4,5-b]pyridin-2-yl]-4-chlorophenyl}furan-2-carboxamide]
EC50 [1, 5]: 0.0058 µM
EC50 ([1]; T. brucei Lister 427, 48 hours, Cell Titer Glo, read-out: EC50): 0.006 µM
EC50 [2, 6]: > 20 µM
EC50 [3]: > 50 µM
EC50 [4]: 0.165 µM

CCN(C)C(=O)Nc1ccc(Cl)c(-c2nc3ncc(C)cc3[nH]2)c1 [Compound 242]
EC50 [1, 5]: 0.36 µM
EC50 [2, 6]: 1.38 µM
EC50 [3]: 25.5 µM
EC50 [4]: 4.3 µM

Cc1cnc2nc(-c3cc(NC(=O)c4ccc(C)[nH]4)ccc3Cl)[nH]c2c1 [Compound 124]
EC50 [1, 5]: > 25 µM
EC50 [2, 6]: > 14.3 µM
EC50 [3]: 13.8 µM
EC50 [4]: > 25 µM

Cc1cnc2nc(-c3cc(NC(=O)N(C)c4ccccc4)ccc3Cl)[nH]c2c1 [Compound 241]
EC50 [1, 5]: 9.7 µM
EC50 [2, 6]: 10.4 µM
EC50 [3]: > 47.5 µM
EC50 [4]: 14.2 µM

Cc1cnc2nc(-c3cc(NC(=O)c4cnc[nH]4)ccc3Cl)[nH]c2c1 [Compound 128]
EC50 [1, 5]: > 25 µM
EC50 [2, 6]: > 20 µM
EC50 [3]: > 50 µM
EC50 [4]: > 25 µM

Cc1cnc2nc(-c3cc(NC(=O)N4CCN(C)CC4)ccc3Cl)[nH]c2c1 [Compound 244]
EC50 [1, 5]: > 25 µM
EC50 [2, 6]: > 20 µM
EC50 [3]: > 50 µM
EC50 [4]: > 25 µM

Cc1cnc2nc(-c3cc(NC(=O)C4CC(F)(F)C4)ccc3Cl)[nH]c2c1 [Compound 117]
EC50 [1, 5]: > 13.5 µM
EC50 [3]: > 50 µM
EC50 [4]: > 25 µM

Cc1cnc2nc(-c3cc(NC(=O)Cc4ncccn4)ccc3Cl)[nH]c2c1 [Compound 145]
EC50 [1, 5]: 16.1 µM
EC50 [3]: > 50 µM
EC50 [4]: > 25 µM

Cc1cnc2nc(-c3cc(NC(=O)c4cnc(C)cn4)ccc3Cl)[nH]c2c1 [Compound 178]
EC50 [1, 5]: 15.2 µM
EC50 [3]: > 50 µM
EC50 [4]: 23.8 µM

Cc1cnc2nc(-c3cc(NC(=O)C4CCCC4)ccc3Cl)[nH]c2c1 [Compound 199]
EC50 [1, 5]: 4.4 µM
EC50 [3]: 21.5 µM
EC50 [4]: 23.7 µM

Cc1ccnc(C(=O)Nc2ccc(Cl)c(-c3nc4ncc(C)cc4[nH]3)c2)c1 [Compound 172]
EC50 [1, 5]: > 15.8 µM
EC50 [3]: 23.7 µM
EC50 [4]: > 25 µM

Cc1cnc2nc(-c3cc(NS(=O)(=O)Cc4ccc(C(F)(F)F)cc4)ccc3Cl)[nH]c2c1 [Compound 252]
EC50 [1, 5]: > 25 µM
EC50 [3]: > 50 µM
EC50 [4]: > 25 µM

Cc1cnc2nc(-c3cc(NC(=O)c4cocn4)ccc3Cl)[nH]c2c1 [Compound 113]
EC50 [1, 5]: 1.68 µM
EC50 [3]: 26.4 µM
EC50 [4]: 15.3 µM

Cc1ccc(CC(=O)Nc2ccc(Cl)c(-c3nc4ncc(C)cc4[nH]3)c2)cc1 [Compound 167]
EC50 [1, 5]: > 11.5 µM
EC50 [3]: 16.1 µM
EC50 [4]: > 25 µM

Cc1cnc2nc(-c3cc(Nc4cccnc4N4CCOCC4)ccc3Cl)[nH]c2c1 [Compound 264]
EC50 [1, 5]: 11.7 µM
EC50 [3]: > 32.3 µM
EC50 [4]: > 25 µM

Cc1cnc2nc(-c3cc(NC(=O)CN)ccc3Cl)[nH]c2c1 [Compound 116]
EC50 [1, 5]: > 25 µM
EC50 [3]: > 50 µM
EC50 [4]: > 25 µM

Cc1cnc2nc(-c3cc(NC(=O)Cc4ccccc4)ccc3Cl)[nH]c2c1 [Compound 202]
EC50 [1, 5]: 1.87 µM
EC50 [3]: > 50 µM
EC50 [4]: > 25 µM

Cc1cnc2nc(-c3cc(NS(=O)(=O)CC(C)C)ccc3Cl)[nH]c2c1 [Compound 255]
EC50 [1, 5]: > 25 µM
EC50 [3]: > 50 µM
EC50 [4]: > 25 µM

Cc1cnc2nc(-c3cc(NC(=O)C(C)(C)c4ccc(Cl)cc4)ccc3Cl)[nH]c2c1 [Compound 81]
EC50 [1, 5]: 10.8 µM
EC50 [3]: 16.9 µM
EC50 [4]: > 25 µM

Cc1cnc2nc(-c3cc(NC(=O)C4(C)CNC4)ccc3Cl)[nH]c2c1 [Compound 200]
EC50 [1, 5]: > 9.6 µM
EC50 [3]: > 50 µM
EC50 [4]: > 25 µM

Cc1cnc2nc(-c3cc(Nc4ccc(N(C)C)cn4)ccc3Cl)[nH]c2c1 [Compound 259]
EC50 [1, 5]: > 25 µM
EC50 [3]: > 50 µM
EC50 [4]: > 25 µM

COc1ccc(CC(=O)Nc2ccc(Cl)c(-c3nc4ncc(C)cc4[nH]3)c2)cc1 [Compound 156]
EC50 [1, 5]: > 14.2 µM
EC50 [3]: 27.2 µM
EC50 [4]: > 25 µM

Cc1cnc2nc(-c3cc(NC(=O)CCO)ccc3Cl)[nH]c2c1 [Compound 143]
EC50 [1, 5]: > 14.4 µM
EC50 [3]: > 50 µM
EC50 [4]: > 25 µM

Cc1cnc2nc(-c3cc(NC(=O)c4cc[nH]n4)ccc3Cl)[nH]c2c1 [Compound 157]
EC50 [1, 5]: 12.8 µM
EC50 [3]: > 34.6 µM
EC50 [4]: > 25 µM

Cc1cnc2nc(-c3cc(NC(=O)Cn4cncn4)ccc3Cl)[nH]c2c1 [Compound 122]
EC50 [1, 5]: > 25 µM
EC50 [3]: > 50 µM
EC50 [4]: > 25 µM

O=C(Nc1ccc(Cl)c(-c2nc3ncc(-c4ccc(OCC5CC5)cc4)cc3[nH]2)c1)c1ccco1 [Compound 36]
EC50 [1, 5]: 0.188 µM
EC50 [3]: 2.27 µM
EC50 [4]: 1.03 µM
